One data set relates to Jurkat cells. The data set can be described thus: Cell viability assay (trypan blue), Jurkat cells. In kind it is cell-based, human. The following applies: for rescue of Jurkat cell survival by WT ks-vFLIP: FADD/ATG3 siRNA Jurkat cells overexpressing WT ks-vFLIP; for protection by ks-vFLIP, IKKγ-null cells: Jurkat cells null for IKKγ; for protection by A57L ks-vFLIP mutant against induced apoptosis: Jurkat cells with A57L ks-vFLIP; for Jurkat cell survival, FADD or ATG3 silenced or IKKγ null: no ks-vFLIP rescue, FADD siRNA, ATG3 siRNA. The source says:
Although it has been established that dysregulated activation of the canonical NF-κB pathway by ks-vFLIP renders mouse embryonic fibroblasts resistant to apoptosis induced by TNF-α ([12]), we sought to ascertain whether ks-vFLIP expression also prevents cell death induced by ETO. Unlike TNF-α, which instigates death receptor signaling, ETO, a topoisomerase II inhibitor, initiates cell death through the generation of DNA double-strand breaks ([20]). […] We next investigated the potential involvement of death-inducing signaling complex (DISC) formation and autophagy since ks-vFLIP has been cited (somewhat controversially) to interact with procaspase 8, an […] whose activation requires the adaptor protein FADD ([21]), and to physically associate with the ubiquitin-like conjugating enzyme ATG3, which is essential for the formation of autophagosomes ([11]). Viability assays were therefore conducted using Jurkat cells in which FADD and ATG3 were silenced (using small interfering RNA [siRNA]) together with those null for IKKγ in the presence of both ETO and TNF-α (Fig. 1C and D).
Lentiviral vectors expressing GST or GST fusion peptides together with green fluorescent protein (GFP), CherryFP, WT vFLIP, or vFLIPA57L (a mutant which fails to bind IKKγ) were produced as previously described ([19]). […] In each case, lentiviral vector doses were used to ensure that over 95% of cells were positive for the relevant fluorescent protein. The anti-FADD antibody used for immunoblots was purchased from BD Biosciences, and those for anti-ATG3 and anti-glyceraldehyde-3-phosphate dehydrogenase (anti-GAPDH) were from Cell Signaling Technology. Jurkat cells and their IKKγ-null derivatives were obtained from Alain Israel, Institute Pasteur, and verified as human T cells by surface CD3 staining.
(§1) The transfected cells, the human B cell lines BC3, BCP-1, and DG75 (a […] negative for KSHV and Epstein-Barr virus [EBV]) were treated with human TNF-α (PeproTech or Alomone Labs), ETO (Sigma), spIKKγ (encompassing IKKγ residues 230 to 248; see Fig. 3 for structure), or combinations of spIKKγ with either TNF-α or ETO. Cell survival was determined after 24 and 48 h by trypan blue staining and counting with a hemocytometer. Cell viability is expressed as a percentage of the number of viable cells per culture at the start of each experiment. […] Significance difference was calculated by two-way analysis of variance (ANOVA) with Fisher's least significant difference (LSD) posttest.

In the next data set the test system is BC3 cells. In kind it is cell-based, human. Conditions: for BC3 cell death, agent individually: TNF-α or ETO alone. The protocol: (§2) Given their profound impact on NF-κB activation, we next assessed whether IKKγ-mimetic peptides could sensitize BC3 cells to TNF-α and ETO and thus stimulate cell death. To investigate this in cellulo, BC3 cells were transduced with the GST-IKKγ peptide vector prior to treatment with TNF-α or ETO, and after 24 h, their viabilities were assessed. As a control, similar trials were conducted but with GST-IKKγDM, which harbors the same peptide containing the F238R D242R IKKγ double mutations previously shown to impair ks-vFLIP binding and consequently NF-κB activation ([27]). […] We also determined whether spIKKγ could have a similar effect. Owing to the presence of the aliphatic linker and overall positive charge (+0.1), we reasoned that spIKKγ was likely to be cell permeable based on studies involving a diverse range of unrelated stapled peptides ([28][–][32]). […] The effects of SPIKKγ were also investigated on BCP-1 cells, an additional PEL cell line.
Lentiviral vectors expressing GST or GST fusion peptides together with green fluorescent protein (GFP), CherryFP, WT vFLIP, or vFLIPA57L (a mutant which fails to bind IKKγ) were produced as previously described ([19]). […] In each case, lentiviral vector doses were used to ensure that over 95% of cells were positive for the relevant fluorescent protein. […]
as §1

Another data set concerns DG75 cells. The experiment in a line: Cell viability assay (trypan blue), DG75 cells. It counts as cell-based, human. As to the method:
as §2
BC3, BCP-1, and DG75 cells were purchased for this study from the American Type Culture Collection (ATCC). They were verified as human B cell lines by surface staining for human Ig.
as §1

Another data set concerns the target T1, GB1–ks-vFLIP (Human herpesvirus 8 type P, UniProt F5HEZ4).
T1 construct: ks-vFLIP (residues 1 to 188) was PCR cloned into the EcoRI and XhoI sites of GB1-pBR22b; 6His (C); made in house; host or cells: E. coli BL21(DE3)
The experiment in a line: biochemical. It counts as binding, Kaposi's sarcoma-associated herpesvirus. The protocol:
We next sought to assess the affinity of spIKKγ for vFLIP using isothermal calorimetry (ITC).
Isothermal calorimetry (ITC) experiments were performed using a Microcal VP-ITC micocalorimeter (MicroCal). For all binding reactions, syringe concentrations varied between ∼85 and 100 μM for IKKγ(150–272) and cell concentrations between ∼8 and 10 μM for GB1-vFLIP. Titrations consisted of an initial 2-μl injection, followed by 20 10-μl injections with stirring at 300 rpm. In competition assays, GB1–ks-vFLIP was first incubated with 20 μM spIKKγ and DMSO to 4% prior to loading into the cell and titration with IKKγ(150–272). All ITC binding experiments were performed in deionized water at 25°C owing to the buffer constraints of spIKKγ, GB1–ks-vFLIP, and IKKγ(150–272), where GB1–ks-vFLIP and IKKγ(150–272) were buffer matched by overnight dialysis, followed by the addition of 4% DMSO to each. […] Following collection, all data were analyzed using ORIGIN 70 software and fitted to a one-site binding model with each experiment performed at least in triplicate.

Positions of bridges follow the written chain, without caps; N, C: chain ends. Non-standard residues stand in square brackets, D forms with d. Residues, ends and D or L forms follow the SMILES beside them. S5 = C=CCCC[C@](C)(N)C(=O)O

On to `COc1cc([C@@H]2c3cc4c(cc3[C@@H](O[C@@H]3O[C@@H]5CO[C@@H](C)O[C@H]5[C@H](O)[C@H]3O)[C@H]3COC(=O)[C@H]23)OCO4)cc(OC)c1O` [ETO, etoposide], for which the “rescue by WT ks-vFLIP, ATG3 siRNA” value with Jurkat cells (ATG3 siRNA Jurkat cells, ETO) is listed as “to a lesser degree”. In addition, the “Jurkat cell survival, null for ks-vFLIP” value in the data set with Jurkat cells (ETO 50 μM, cells null for ks-vFLIP) was “severely compromised”. Besides, the “Jurkat cell survival with ks-vFLIP” value with Jurkat cells (ETO 50 μM, ks-vFLIP-expressing cells) was “only moderately reduced”. Moreover, in the data set on Jurkat cells, the “rescue of Jurkat cell survival by WT ks-vFLIP” value is reported as “could to a large extent be rescued”; the “protection by ks-vFLIP, IKKγ-null cells” value was “completely refractory to the protective effects of ks-vFLIP”; the “protection by A57L ks-vFLIP mutant against induced apoptosis” value is given as “could not protect cells against apoptosis”; the “Jurkat cell survival, FADD or ATG3 silenced or IKKγ null” value is reported as “severely compromised in all three scenarios”. For the same molecule, in the data set with BC3 cells, the “BC3 cell death, agent individually” value is “negligible effects individually”. In addition, in the data set with DG75 cells (Fig. 5E, 48 h), the “DG75 viability at 48 h, ETO (or ETO plus spIKKγ)” value is “significant reduction in viability”. The “DG75 sensitivity to ETO” value in the data set with DG75 cells (after 48 h) is on record as “Considerable sensitivity”.

In general, Ki refers to the dissociation constant of the complex between target and ligand, obtained from inhibition or displacement. With `CC[C@H](C)[C@H](NC(=O)[C@H](Cc1c[nH]cn1)NC(=O)[C@H](CC(N)=O)NC(=O)[C@H](CC(=O)O)NC(=O)[C@H](Cc1ccc(O)cc1)NC(=O)[C@]1(C)CCCC=CCCC[C@](C)(NC(=O)[C@H](Cc2c[nH]cn2)NC(=O)[C@H](Cc2ccc(O)cc2)NC(=O)[C@H](C)NC(=O)[C@@H](NC(=O)[C@H](CCC(N)=O)NC(=O)[C@H](CC(C)C)NC(C)=O)C(C)C)C(=O)N[C@@H](CC(C)C)C(=O)N[C@@H](Cc2ccccc2)C(=O)N[C@@H](CCC(N)=O)C(=O)N1)C(=O)N[C@@H](CCCCN)C(=O)N[C@@H](CO)C(=O)N[C@@H](CO)C(=O)N[C@@H](CS)C(N)=O` [spIKKγ] (Ac-LQVAYH[S5]LFQ[S5]YDNHIKSSC-NH2; staple 7-11), the “solubility in aqueous solutions” value is listed as “poor solubility”. Moreover, the Ki on GB1–ks-vFLIP is 0.257 µM. Also, the IC50 in the data set with BC3 cells (spIKKγ alone, after 24 h, trypan blue, triplicate independent experiments, read-out: 50% inhibitory concentration (IC50), BC3 viability) is ~75 µM.

In the case of TNF-α, in the data set with Jurkat cells, the “rescue of Jurkat cell survival by WT ks-vFLIP” value is reported as “could to a large extent be rescued”; the “protection by ks-vFLIP, IKKγ-null cells” value was “completely refractory to the protective effects of ks-vFLIP”; the “protection by A57L ks-vFLIP mutant against induced apoptosis” value is recorded as “could not protect cells against apoptosis”; the “Jurkat cell survival, FADD or ATG3 silenced or IKKγ null” value is recorded as “severely compromised in all three scenarios”. The “Jurkat cell survival, trend versus ETO” value with Jurkat cells (TNF-α, various concentrations, with and without ks-vFLIP) is listed as “closely mirror the trend”. The “BC3 cell death, agent individually” value with BC3 cells is given as “negligible effects individually”. Moreover, the “DG75 viability, control experiment” value in the data set with DG75 cells (Fig. 5E, spIKKγ or TNF-α alone or in combination, 24 and 48 h) is reported as “failed to have a negative impact”.

The values are drawn from publication PMC5686756, “IKKγ-Mimetic Peptides Block the Resistance to Apoptosis Associated with Kaposi's Sarcoma-Associated Herpesvirus Infection” (Journal of Virology, 2017).
